In paper PMC11930087, “Mobility of four structural regions drives isoform-specific properties of photoenzyme LPOR in plants” (The Journal of Biological Chemistry, 2025) one finds Kd data, which are given here for 1 compound.

Some results are limits rather than exact numbers.

Holding throughout (assay): […] K Pchlide fluorescence in darkness, F648/F635 ratio vs NADPH, hyperbolic fit
Assay type in all cases: binding
What all share (conditions): lipid-free; 5 μM Pchlide, 15 μM LPOR, pH 7.1, room-temperature dark incubation; apparent parameter, exact value in supplement; read-out: KM^D

One assay has as its target T1, SlPOR2 (Solanum lycopersicum, UniProt A0A3Q7IBI0).
T1 construct: gene POR; transit peptide removed; pET15b
T1 sequence (A0A3Q7IBI0 62-395): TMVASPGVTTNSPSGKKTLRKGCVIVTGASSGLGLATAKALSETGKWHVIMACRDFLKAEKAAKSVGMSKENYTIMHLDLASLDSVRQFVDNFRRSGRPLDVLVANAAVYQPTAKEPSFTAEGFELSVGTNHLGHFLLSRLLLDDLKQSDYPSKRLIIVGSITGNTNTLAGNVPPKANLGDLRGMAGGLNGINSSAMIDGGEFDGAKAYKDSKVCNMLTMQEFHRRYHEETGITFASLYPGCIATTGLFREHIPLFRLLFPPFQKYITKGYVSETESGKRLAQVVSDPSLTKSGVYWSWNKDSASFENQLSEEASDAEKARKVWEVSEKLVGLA

In another assay the target is T2, TaPOR1 (Triticum aestivum, UniProt Q41578).
T2 construct: gene PORA
T2 sequence (Q41578 75-388): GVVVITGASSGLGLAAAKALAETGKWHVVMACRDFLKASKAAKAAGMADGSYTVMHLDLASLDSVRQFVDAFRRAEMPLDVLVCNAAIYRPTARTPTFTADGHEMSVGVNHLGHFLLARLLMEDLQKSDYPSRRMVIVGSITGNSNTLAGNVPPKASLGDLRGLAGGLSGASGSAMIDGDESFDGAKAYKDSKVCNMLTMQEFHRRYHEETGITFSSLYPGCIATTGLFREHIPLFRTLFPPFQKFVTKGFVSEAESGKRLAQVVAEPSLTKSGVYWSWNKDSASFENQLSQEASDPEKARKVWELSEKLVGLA

A further assay concerns the target T3, PeaPOR (Lathyrus oleraceus, UniProt Q01289).
T3 construct: gene 3PCR; transit peptide removed; pET15b
T3 sequence (Q01289 65-399): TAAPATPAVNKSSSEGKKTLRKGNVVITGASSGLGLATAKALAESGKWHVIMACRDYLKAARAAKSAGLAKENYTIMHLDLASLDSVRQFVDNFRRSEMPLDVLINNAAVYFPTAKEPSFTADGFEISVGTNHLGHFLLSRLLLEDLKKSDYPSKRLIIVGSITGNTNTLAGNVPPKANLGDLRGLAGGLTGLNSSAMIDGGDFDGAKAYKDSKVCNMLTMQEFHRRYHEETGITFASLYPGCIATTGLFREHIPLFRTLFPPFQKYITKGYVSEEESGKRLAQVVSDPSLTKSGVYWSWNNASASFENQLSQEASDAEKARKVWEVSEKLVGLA

Another assay addresses T4, SlPOR1 (Solanum lycopersicum, UniProt A0A3Q7HEX8).
T4 construct: gene POR2; transit peptide removed; pET15b
T4 sequence (A0A3Q7HEX8 65-399): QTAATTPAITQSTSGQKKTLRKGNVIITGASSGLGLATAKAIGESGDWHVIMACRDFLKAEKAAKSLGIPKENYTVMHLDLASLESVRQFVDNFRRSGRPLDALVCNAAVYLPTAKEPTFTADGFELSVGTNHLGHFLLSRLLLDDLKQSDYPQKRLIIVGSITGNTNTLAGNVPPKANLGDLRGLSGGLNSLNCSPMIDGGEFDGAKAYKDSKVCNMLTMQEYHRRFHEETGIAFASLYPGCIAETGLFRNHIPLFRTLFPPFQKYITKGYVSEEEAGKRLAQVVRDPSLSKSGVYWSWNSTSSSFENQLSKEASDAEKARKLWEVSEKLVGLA

The target of a further assay is T5, PinPOR (Pinus mugo, UniProt Q41202).
T5 construct: transit peptide removed; pET15b
T5 sequence (Q41202 67-400): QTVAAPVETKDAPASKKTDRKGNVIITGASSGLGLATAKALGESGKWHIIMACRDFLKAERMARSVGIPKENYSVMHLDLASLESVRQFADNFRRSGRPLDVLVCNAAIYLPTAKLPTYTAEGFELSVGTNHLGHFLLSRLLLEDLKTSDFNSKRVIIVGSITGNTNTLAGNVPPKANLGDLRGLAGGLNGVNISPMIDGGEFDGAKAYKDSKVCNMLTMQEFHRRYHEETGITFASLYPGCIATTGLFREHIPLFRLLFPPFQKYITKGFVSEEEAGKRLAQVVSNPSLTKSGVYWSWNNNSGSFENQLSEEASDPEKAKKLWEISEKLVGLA

As for `NC(=O)C1=CN([C@@H]2O[C@H](COP(=O)(O)OP(=O)(O)OC[C@H]3O[C@@H](n4cnc5c(N)ncnc54)[C@H](OP(=O)(O)O)[C@@H]3O)[C@@H](O)[C@H]2O)C=CC1` [NADPH], the Kd at SlPOR2 was less than 10 µM; on TaPOR1, greater than 100 µM; at PeaPOR it was less than 10 µM; at SlPOR1, less than 10 µM; at PinPOR, less than 10 µM.
